Among the data in PubChem BioAssay (NCI) are TGI and GI50 values, retold here.

Some test systems named below: LXFL 529 NSCLC; DMS 273 small cell lung; M19-MEL melanoma; DMS 114 small cell lung; XF 498 CNS; KM20L2 colon; SNB-78 CNS; HOP-18 NSCLC; RXF-631 renal; P388 leukemia; SN12K1 renal; P388/ADR leukemia.
Experiment in all cases: NCI tumour cell line growth inhibition, 48 h

Several values for one entry are separate records, joined by “and”; a condition that tells them apart may be missing. Equal values may be shown once.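 Grown in 96-well plates, cells were treated for 48 hours with each compound at five concentrations. Insufficient inhibition: endpoint recorded as highest concentration tested. The concentration for 50% growth inhibition is given as GI50. The concentration for full growth arrest is given as TGI.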

Turning to `C[C@]12CCC(=O)C=C1CC[C@@H]1C2CC[C@@]2(C)C1CC[C@@H]2OC(=O)C12OC1CCC2=O` (some centres not stated), the TGI in the experiment on LXFL 529 NSCLC was 28 µM; in the experiment on DMS 273 small cell lung, 31.1 µM; with M19-MEL melanoma it was 30.3 µM; in the experiment on DMS 114 small cell lung it was 34.3 µM; with XF 498 CNS, 27.9 µM; with KM20L2 colon, 34.3 µM. The TGI turned out to be 33.9 µM in the experiment on SNB-78 CNS and 31.7 µM in the experiment with HOP-18 NSCLC.

Regarding `COC(=O)CC1NC(=O)C1C(C)(OC)OC` (configuration not stated), the TGI in the experiment with LXFL 529 NSCLC, in the experiment with RXF-631 renal, with DMS 273 small cell lung, in the experiment with M19-MEL melanoma, in the experiment on DMS 114 small cell lung and in the experiment on XF 498 CNS was > 100 µM in each case. Further, in the experiment on KM20L2 colon, the TGI was > 100 µM.

With `Brc1ccc(C[N+]23CN4CN(CN(C4)C2)C3)cc1`, the TGI was 52.9 µM in the experiment on DMS 273 small cell lung; > 100 µM with M19-MEL melanoma; 51.1 µM with DMS 114 small cell lung; > 100 µM in the experiment on KM20L2 colon; > 100 µM with SNB-78 CNS.

Take `CN(C)CCNC(=O)c1cccc2[nH]c(-c3ccc(Cl)cc3)nc12`: the TGI in the experiment on DMS 273 small cell lung amounted to 14.3 µM; with P388 leukemia, 14.5 µM; with M19-MEL melanoma, 19.7 µM; with DMS 114 small cell lung it was 21.7 µM; with SN12K1 renal it was 14.8 µM; in the experiment on XF 498 CNS, 17.6 µM. For the same compound, the TGI in the experiment with KM20L2 colon was 18.6 µM; with SNB-78 CNS it was 37.7 µM; in the experiment with P388/ADR leukemia, 18.4 µM; in the experiment on HOP-18 NSCLC, 61.1 µM.

For the compound `Cc1cc(=O)[nH]c(NNC(C#N)c2ccc(N(C)C)cc2)n1` (configuration not stated), the TGI with DMS 273 small cell lung, with M19-MEL melanoma, with DMS 114 small cell lung, in the experiment with KM20L2 colon, with SNB-78 CNS and in the experiment with HOP-18 NSCLC was > 100 µM each time.

Consider `O=C1NC2OC(CO)C(O)C(O)C2O1` (configuration not stated), for which the TGI in the experiment on LXFL 529 NSCLC, in the experiment on DMS 273 small cell lung, with M19-MEL melanoma, with DMS 114 small cell lung, in the experiment with KM20L2 colon and in the experiment on SNB-78 CNS was > 100 µM in each case. Further, the TGI with HOP-18 NSCLC was > 100 µM.

Consider `NC(CS)C(=O)NCCNc1ccc(NCCNC(=O)C(N)CS)c2c1C(=O)c1c(O)ccc(O)c1C2=O` (configuration not stated), for which the GI50 with LXFL 529 NSCLC is 0.0673 µM; in the experiment with M19-MEL melanoma, 0.138 µM; with KM20L2 colon, 0.195 µM; in the experiment with HOP-18 NSCLC, 0.0307 µM. Further, the TGI with LXFL 529 NSCLC was 0.927 µM and 0.631 µM; in the experiment on M19-MEL melanoma, 0.863 µM and 1.01 µM; in the experiment with XF 498 CNS it was 0.463 µM; with KM20L2 colon, 1.49 µM and 1.37 µM; with HOP-18 NSCLC it was 3.9 µM and 0.484 µM.

With `COc1ccc(N2C(=O)C3C=CC(n4[nH]c(=O)n(Cc5ccccc5)c4=O)CC3C2=O)cc1` (configuration not stated), the TGI in the experiment with LXFL 529 NSCLC, with DMS 273 small cell lung, in the experiment on M19-MEL melanoma, in the experiment with DMS 114 small cell lung, with XF 498 CNS and in the experiment with KM20L2 colon was > 100 µM in each case. For the same compound, the TGI in the experiment with SNB-78 CNS and with HOP-18 NSCLC was > 100 µM each time.

For the compound `COc1ccc(/C=C(\C2=NC(=O)CS2)c2nc3ccccc3[nH]2)cc1`, the TGI was > 100 µM in the experiment on LXFL 529 NSCLC; > 100 µM in the experiment with DMS 273 small cell lung; > 100 µM in the experiment with M19-MEL melanoma; > 100 µM in the experiment on DMS 114 small cell lung; 81.5 µM with XF 498 CNS; > 100 µM in the experiment on KM20L2 colon. In the experiment with SNB-78 CNS, the TGI was > 100 µM.

In the case of `CCOC(=O)C1=C(O)c2ccc(OC)cc2C(=O)C1=O`, the TGI with DMS 273 small cell lung was > 100 µM; with M19-MEL melanoma, 44.4 µM; in the experiment on DMS 114 small cell lung, > 100 µM; with KM20L2 colon, > 100 µM; with SNB-78 CNS, > 100 µM; with HOP-18 NSCLC, 66.5 µM.

As for `COc1cccc2c1C(=O)c1c(O)c3c(c(O)c1C2=O)CC(O)(C(C)=O)CC3O` (configuration not stated), the TGI with DMS 273 small cell lung was found to be 15.6 µM; in the experiment on P388 leukemia, 9.69 µM; with M19-MEL melanoma it was 15.7 µM; in the experiment with DMS 114 small cell lung, 24.1 µM; in the experiment on SN12K1 renal, 10.5 µM; in the experiment on XF 498 CNS, 1.31 µM. In addition, the TGI came to 48.2 µM in the experiment on KM20L2 colon, 48 µM in the experiment with SNB-78 CNS, 9.23 µM with P388/ADR leukemia and 41.5 µM in the experiment with HOP-18 NSCLC.

Take `O=P(Nc1cccc(Cl)c1)(Oc1ccccc1)N(CCCl)CCCl` (configuration not stated): the TGI in the experiment on LXFL 529 NSCLC was 24.6 µM; in the experiment with DMS 273 small cell lung, 27.3 µM; in the experiment with M19-MEL melanoma, 32.8 µM; with DMS 114 small cell lung, 26.1 µM; in the experiment with KM20L2 colon, 26.7 µM; in the experiment on SNB-78 CNS it was 43.8 µM. For the same compound, in the experiment on HOP-18 NSCLC, the TGI turned out to be 47.2 µM.

In the case of `O=C1C(Cl)C(c2ccc([N+](=O)[O-])cc2)N1n1cnc2ccccc2c1=O` (configuration not stated), the TGI in the experiment with LXFL 529 NSCLC is > 100 µM; with DMS 273 small cell lung it was > 100 µM; with DMS 114 small cell lung it was > 100 µM; in the experiment on XF 498 CNS it was > 100 µM; with KM20L2 colon it was > 100 µM; in the experiment on SNB-78 CNS it was 88.1 µM. Also, the TGI with HOP-18 NSCLC was > 100 µM.

For the compound `COc1ccc(OC)c(-c2cc(=O)c3cc4c(cc3[nH]2)OCO4)c1`, the TGI was 49.6 µM with LXFL 529 NSCLC; 20.9 µM in the experiment on DMS 273 small cell lung; > 100 µM with M19-MEL melanoma; 13.9 µM with DMS 114 small cell lung; 35.9 µM in the experiment with XF 498 CNS; 23.7 µM in the experiment on KM20L2 colon. Also, the TGI in the experiment with SNB-78 CNS and in the experiment on HOP-18 NSCLC was > 100 µM in each case.

As to `Nc1ccn(CCCC(c2ccccc2)P(=O)(O)O)c(=O)n1` (configuration not stated), the TGI in the experiment on LXFL 529 NSCLC, in the experiment with DMS 273 small cell lung, in the experiment with M19-MEL melanoma, in the experiment on DMS 114 small cell lung, in the experiment on KM20L2 colon and in the experiment with SNB-78 CNS was > 100 µM in each case. For the same compound, in the experiment with HOP-18 NSCLC, the TGI was > 100 µM.
